26 molecules from patent US9057727B2, “Screening methods using G-protein coupled receptors and related compositions” (The General Hospital Corporation, priority 2007, dated 2015) can be followed below.

pEC50: −log10 of the molar value. Ends that are not written are not given here. Peptide text beside a SMILES is read from it.

Common to all, as to format: cell-based
The test system of assay [1] is MC3T3-E1 cells. Put plainly: cAMP in MC3T3-E1 cells, dose-response. The settings on record: Table 3; read-out: dose-response cAMP in MC3T3-E1 (EC50). The method, then: In the 1-30 scaffold, Gly, Ser, Leu, Asn, Gln, Trp, Glu, and Lys were substituted at position 29; Gly, Ser, Leu, Asn, Asp, Trp, and Lys were substituted at position 30; and Ser, Leu, Asn, Val, Trp, Glu, and Lys were substituted at position 31. […] These peptides were tested for cAMP activity in MC3T3-E1 cells.

Assay [2] relates to MC3T3-E1 cells. The assay can be described thus: cAMP screen of EALK-PTHrP(1-31)/(1-34) variants (% parent). From the text:
FIGS. 32A and 32B are graphs showing the effects of amino acid substitutions in the 29-31 region of EALK-PTHrP(1-31) (SEQ ID NO:94) (FIG. 32A) and the 29-33 region of EALK-PTHrP(1-34) (SEQ ID NO:112) (FIG. 32B) on induction of cAMP activity in MC3T3-E1 cells. Substitutions at position 29 for EALK-PTHrP(1-31) were G^29 to S^29 (SEQ ID NO:95-96), L^29 (SEQ ID NO:176), and N^29 to K^29 (SEQ ID NO:97-101). Substitutions at position 30 for EALK-PTHrP(1-31) were G^30 to D^30 (SEQ ID NO:102-106), W^30 (SEQ ID NO:177), and K^30 (SEQ ID NO:107). […] Substitutions for EALK-PTHrP(1-34) A^30 to A^33 (SEQ ID NO:113-116) and EALK-PTHrP(1-28)/PTH(29-34) (SEQ ID NO:117).
To optimize the activity of the EALK-PTHrP peptides, we generated EALK-PTHrP([…]) and PTHrP(1-34) variants with substitutions in the 29-33 region. In the 1-30 scaffold, Gly, Ser, Leu, Asn, Gln, Trp, Glu, and Lys were substituted at position 29; Gly, Ser, Leu, Asn, Asp, Trp, and Lys were substituted at position 30; and Ser, Leu, Asn, Val, Trp, Glu, and Lys were substituted at position 31. […] A predicted advantage of these longer-length peptides, relative to the PTHrP(1-30) scaffold, is that they will have longer a longer half-life in circulation due to slower clearance. The C-terminal substitutions were thus designed to provide the added chain length, but to avoid increasing R^0 binding affinity, which occurs when the native PTHrP(29-34) region (SEQ ID NO:186) is installed. These peptides were tested for cAMP activity in MC3T3-E1 cells.

The test system of the next assay is SaOS cells. Put plainly: cAMP production in SaOS cells, dose-response. Conditions: Table 3; read-out: dose-response cAMP in SaOS (EC50). (cAMP levels reflect the balance of adenylyl cyclase and phosphodiesterase activity.)
The test system of assay [3] is LLCPK1-B64 cells or SaOS-2 cells. The assay can be described thus: cAMP screen of substituted PTHrP(1-28) analogs (% parent). Conditions: parent PTHrP(1-28)NH. In outline:
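LLCPK1-B64 or SaOS-2 cells exposed to peptide analogs at 3×10^−9M with IBMX for 30 minutes at room temperature, then cAMP measured. Each analog's response expressed as percentage of that for parent PTHrP(1-28).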

Setting [4] is: parent E18,A22,L25,K26-PTHrP(1-31)OH.
[5] abbreviates: parent E18,A22,L25,K26-PTHrP(1-34)OH.

The pEC50 is −log10 of the EC50, conventionally taken in molar units. For the molecule “AVSEHQLLHDKGKSIQDERRRAFLLKLIAEL [E18, A22, L25, K26, L31-PTHrP(1-31)OH, E18,A22,L25,K26,L31-PTHrP(1-31)]”, the pEC50 with MC3T3-E1 cells [1] is 9.60. Moreover, the “screen cAMP (% parent)” value with MC3T3-E1 cells [2] (setting [4]) is given as 198 % parent.
Consider `CC[C@H](C)[C@H](NC(=O)[C@H](CC(C)C)NC(=O)[C@H](CCCCN)NC(=O)[C@H](CC(C)C)NC(=O)[C@H](CC(C)C)NC(=O)[C@H](Cc1ccccc1)NC(=O)[C@H](CO)NC(=O)[C@H](CCCNC(=N)N)NC(=O)[C@H](CCCNC(=N)N)NC(=O)[C@H](CCCNC(=N)N)NC(=O)[C@H](CCC(=O)O)NC(=O)[C@H](CC(=O)O)NC(=O)[C@H](CCC(N)=O)NC(=O)[C@@H](NC(=O)[C@H](CO)NC(=O)[C@H](CCCCN)NC(=O)CNC(=O)[C@H](CCCCN)NC(=O)[C@H](CC(=O)O)NC(=O)[C@H](Cc1c[nH]cn1)NC(=O)[C@H](CC(C)C)NC(=O)[C@H](CC(C)C)NC(=O)[C@H](CCC(N)=O)NC(=O)[C@H](Cc1c[nH]cn1)NC(=O)[C@H](CCC(=O)O)NC(=O)[C@H](CO)NC(=O)[C@@H](NC(=O)[C@H](C)N)C(C)C)[C@@H](C)CC)C(N)=O` [E18, S22, L25, K26-PTHrP(1-28)NH, E18,S22,L25,K26-PTHrP(1-28)] (H-AVSEHQLLHDKGKSIQDERRRSFLLKLI-NH2; N-terminus assumed), for which the negative logarithm of the EC50 (pEC50) with SaOS cells is 10.26. The “screen cAMP (% parent)” value in assay [3] turned out to be 337 % parent.
For “AVSEHQLLHDKGKSIQDERRRAFLLKLIAEAHTA [E18, A22, L25, K26, A31-PTHrP(1-34)OH, E18,A22,L25,K26,A31-PTHrP(1-34)]”, in the assay on MC3T3-E1 cells [1], the negative logarithm of the EC50 (pEC50) was 9.82. Besides, the “screen cAMP (% parent)” value with MC3T3-E1 cells [2] (setting [5]) stood at 249 % parent.
“E18,A22,L25,K26,A32-PTHrP(1-34) (AVSEHQLLHDKGKSIQDERRRAFLLKLIAEIATA-OH) [E18, A22, L25, K26, A32-PTHrP(1-34)OH]”: in the assay with MC3T3-E1 cells [2] (setting [5]), the “screen cAMP (% parent)” value is 197 % parent.
Take “AVSEHQLLHDKGKSIQDERRRAFLLKLIAEIHTA [E18, A22, L25, K26-PTHrP(1-34)OH, E18,A22,L25,K26-PTHrP(1-34)]”: the pEC50 in the assay with MC3T3-E1 cells [1] was 9.35. Moreover, the “screen cAMP (% parent)” value in the assay on MC3T3-E1 cells [2] (setting [5]) is on record as 100 % parent.
Take “E18,A22,L25,K26,N30-PTHrP(1-31) (AVSEHQLLHDKGKSIQDERRRAFLLKLIANI-OH) [E18, A22, L25, K26, N30-PTHrP(1-31)OH]”: the “screen cAMP (% parent)” value in the assay on MC3T3-E1 cells [2] (setting [4]) is 189 % parent.
For the molecule “AVSEHQLLHDKGKSIQDERRRAFLLKLIAAIHTA [E18, A22, L25, K26, A30-PTHrP(1-34)OH, E18,A22,L25,K26,A30-PTHrP(1-34)]”, the pEC50 with MC3T3-E1 cells [1] is 9.85. For the same molecule, in the assay on MC3T3-E1 cells [2] (setting [5]), the “screen cAMP (% parent)” value is 237 % parent.
On to “E18,A22,L25,K26,G30-PTHrP(1-31) (AVSEHQLLHDKGKSIQDERRRAFLLKLIAGI-OH) [E18, A22, L25, K26, G30-PTHrP(1-31)OH]”, for which the “screen cAMP (% parent)” value in the assay on MC3T3-E1 cells [2] (setting [4]) is on record as 286 % parent.
Turning to “AVSEHQLLHDKGKSIQDERRRAFLLKLIQEI [E18, A22, L25, K26, Q29-PTHrP(1-31)OH, E18,A22,L25,K26,Q29-PTHrP(1-31)]”, the negative-log EC50 (pEC50) with MC3T3-E1 cells [1] was 9.23. Besides, in the assay with MC3T3-E1 cells [2] (setting [4]), the “screen cAMP (% parent)” value was determined as 226 % parent.
Taken in the same sequence, the figures for “AVSEHQLLHDKGKSIQDERRRAFLLKLIKEI [E18, A22, L25, K26, K29-PTHrP(1-31)OH, E18,A22,L25,K26,K29-PTHrP(1-31)]” were 9.55 and 227 % parent.
“E18,A22,L25,K26,K31-PTHrP(1-31) (AVSEHQLLHDKGKSIQDERRRAFLLKLIAEK-OH) [E18, A22, L25, K26, K31-PTHrP(1-31)OH]”: the “screen cAMP (% parent)” value in the assay on MC3T3-E1 cells [2] (setting [4]) is 134 % parent.
As for “AVSEHQLLHDKGKSIQDERRRAFLLKLIQDVHNF [E18,A22,L25,K26,Q29,D30,V31,N33,F34-PTHrP(1-34)]”, in the assay with MC3T3-E1 cells [1], the pEC50 was 9.25. For the same molecule, the “screen cAMP (% parent)” value in the assay on MC3T3-E1 cells [2] (setting [5]) was 204 % parent.
In the case of “E18,A22,L25,K26,S31-PTHrP(1-31) (AVSEHQLLHDKGKSIQDERRRAFLLKLIAES-OH) [E18, A22, L25, K26, S31-PTHrP(1-31)OH]”, the “screen cAMP (% parent)” value in the assay with MC3T3-E1 cells [2] (setting [4]) is 99 % parent.
As to “E18,A22,L25,K26,L30-PTHrP(1-31) (AVSEHQLLHDKGKSIQDERRRAFLLKLIALI-OH) [E18, A22, L25, K26, L30-PTHrP(1-31)OH]”, the “screen cAMP (% parent)” value with MC3T3-E1 cells [2] (setting [4]) was determined as 185 % parent.
As to “E18,A22,L25,K26,V31-PTHrP(1-31) (AVSEHQLLHDKGKSIQDERRRAFLLKLIAEV-OH) [E18, A22, L25, K26, V31-PTHrP(1-31)OH]”, the “screen cAMP (% parent)” value in the assay on MC3T3-E1 cells [2] (setting [4]) was found to be 181 % parent.
On the same count and under the same terms, the result for “E18,A22,L25,K26,G29-PTHrP(1-31) (AVSEHQLLHDKGKSIQDERRRAFLLKLIGEI-OH) [E18, A22, L25, K26, G29-PTHrP(1-31)OH]” reads 206 % parent.
On to “E18,A22,L25,K26,A33-PTHrP(1-34) (AVSEHQLLHDKGKSIQDERRRAFLLKLIAEIHAA-OH) [E18, A22, L25, K26, A33-PTHrP(1-34)OH]”, for which the “screen cAMP (% parent)” value with MC3T3-E1 cells [2] (setting [5]) is recorded as 196 % parent.
For the molecule “AVSEHQLLHDKGKSIQDERRRAFLLKLIAKI [E18, A22, L25, K26, K30-PTHrP(1-31)OH, E18,A22,L25,K26,K30-PTHrP(1-31)]”, the pEC50 in the assay with MC3T3-E1 cells [1] was 9.70. For the same molecule, the “screen cAMP (% parent)” value in the assay on MC3T3-E1 cells [2] (setting [4]) is 245 % parent.
Consider “AVSEHQLLHDKGKSIQDERRRAFLKKLI [E18, A22, K25, 26-PTHrP(1-28)NH, E18,A22,K25,26-PTHrP(1-28)]”, for which the negative-log EC50 (pEC50) in the assay on SaOS cells was 10.27. Moreover, the “screen cAMP (% parent)” value in assay [3] was 323 % parent.
In the case of “E18,A22,L25,K26,E29-PTHrP(1-31) (AVSEHQLLHDKGKSIQDERRRAFLLKLIEEI-OH) [E18, A22, L25, K26, E29-PTHrP(1-31)OH]”, in the assay on MC3T3-E1 cells [2] (setting [4]), the “screen cAMP (% parent)” value turned out to be 100 % parent.
Consider “AVSEHQLLHDKGKSIQDERRRAFLLKLISEI [E18, A22, L25, K26, S29-PTHrP(1-31)OH, E18,A22,L25,K26,S29-PTHrP(1-31)]”, for which the pEC50 in the assay on MC3T3-E1 cells [1] was 9.39. The “screen cAMP (% parent)” value with MC3T3-E1 cells [2] (setting [4]) came to 209 % parent.
Turning to “AVSEHQLLHDKGKSIQDARRRSFLKKLI [A18, S22, K25, 26-PTHrP(1-28)NH, A18,S22,K25,26-PTHrP(1-28)]”, the pEC50 in the assay on SaOS cells is 10.82. Moreover, the “screen cAMP (% parent)” value in assay [3] worked out at 316 % parent.
Taken in the same sequence, the figures for “AVSEHQLLHDKGKSIQDARRRAFLKKLI [A18, 22, K25, 26-PTHrP(1-28)NH, A18,22,K25,26-PTHrP(1-28)]” were 10.92 and 349 % parent.
Take “AVSEHQLLHDKGKSIQDERRRAFLLKLIADI [E18, A22, L25, K26, D30-PTHrP(1-31)OH, E18,A22,L25,K26,D30-PTHrP(1-31)]”: in the assay on MC3T3-E1 cells [1], the pEC50 is 9.49. In addition, the “screen cAMP (% parent)” value in the assay with MC3T3-E1 cells [2] (setting [4]) came out at 251 % parent.
On the same counts, the results for “AVSEHQLLHDKGKSIQDERRRAFLLKLIASI [E18, A22, L25, K26, S30-PTHrP(1-31)OH, E18,A22,L25,K26,S30-PTHrP(1-31)]” are 9.92 and 331 % parent.
For the molecule “AVSEHQLLHDKGKSIQDERRRAFLLKLIAEI [E18, A22, L25, K26-PTHrP(1-31)OH, E18,A22,L25,K26-PTHrP(1-31)]”, in the assay with MC3T3-E1 cells [1], the pEC50 is 9.11. The “screen cAMP (% parent)” value in the assay on MC3T3-E1 cells [2] (setting [4]) was 100 % parent.
